Results: patent US20240245639A1, “Dermal Application of Retinoic Acid Receptor Agonists for Amelioration of Hypertrophic Scar” (Northwestern University, priority 2023, published 2024)

Assays:
[1] = tested on: excisional wound-induced hypertrophic scarring in the ears of New Zealand White rabbits; assay: Rabbit ear hypertrophic scar model; format: in vivo; details: POD28; for amount of type I collagen in the dermis (Western blot, densitometry) / erythema in developed scars: intradermal; for erythema in developed scars: three injections
Description: Harvested scars were processed and analyzed to determine scar elevation index (SEI), a common quantitative histological measurement used to assess scar hypertrophy (FIG. 17). […] MATERIALS AND METHODS Materials […] dihydrochloride hydrate, homoharringtonine, Ch55 and panobinostat were acquired from Fisher Scientific (Waltham, MA). AZD-7762 was acquired from Selleck Chemicals (Houston, TX). For in vitro work, emetine dihydrochloride hydrate was dissolved in sterile H2O at 50 mM. Homoharringtonine was dissolved in DMSO at 10 mg/mL. Panobinostat was dissolved in DMSO at 425 μM. […] Recombinant human TGF-β1 (Sigma-Aldrich) was dissolved in sterile H2O at 50 µg/mL. All-trans-retinoic acid (Thermo Scientific) was dissolved in DMSO at 10 mM. […] All animal experiments were approved prior to initiation by the Northwestern University Institutional Animal Care and Use Committee (IACUC). Rabbit experiments were performed in female New Zealand White rabbits (Envigo, Indianapolis, IN) of mass 2.5-3 kg. The hypertrophic scar model was performed as described in previous publications (Dolivo et al., Jia et al., 2017, Xie et al., 2020). Briefly, on each ear, six full-thickness circular excisional wounds of 7-mm diameter were created down to the perichondrium using biopsy punches, and excised tissue was removed gently using forceps. Wounds were covered with Tegaderm (3M Healthcare, St. Paul, MN) and wounds were allowed to re-epithelialize until post-operative day (POD) 12. […] Injections were performed on POD16, POD19, and POD22. On POD28, measurements of erythema were performed using a DermaLab Combo (CyberDerm, Broomall, PA) immediately prior to euthanasia and tissue harvest. Harvested scar tissues were incubated in 0.5M ammonium thiocyanate for 20 minutes, followed by mechanical separation of dermis and epidermis using a dissecting microscope. Isolated dermal tissues were minced with a razor blade, submerged in RIPA buffer, and homogenized in the presence of 2 mm zirconia beads using a MagNA Lyser (Roche, Basel, Switzerland). Alternatively, cell culture samples were detached from the culture surface by trypsinization, collected by centrifugation, and lysed in RIPA buffer. Protein concentrations of cell culture and tissue samples were determined using a DC protein assay (BioRad). Five micrograms of total protein were loaded onto polyacrylamide gels and subjected to SDS-PAGE before transfer to nitrocellulose membranes, blocking with 5% dry milk in TBS-T, and probing with target-specific primary antibodies overnight. Species-specific secondary antibody solutions were added to membranes, and chemiluminescent signal was developed with Amersham ECL Western blotting detection reagent using X-ray film. Harvested tissues were fixed in 10% neutral-buffered formalin for 24 hours before serial dehydration and embedding in paraffin. […] Slides were deparaffinized and rehydrated in xylene and serial ethanol. Tissue samples were stained with hematoxylin and eosin (H&E), Modified Masson's Trichrome stain (Scytek, Logan, UT), or picrosirius red/fast green according to standard protocols.

[2] = tested on: primary human foreskin fibroblasts; assay: RNA-seq expression profiling of Ch55 effects; format: cell-based; details: 1,000 nM Ch55, 24 hours
Excerpt: We then used goseq (Young et al., 2010) to query the KEGG database with the […] signature and the TGF-β-antagonizing signature. Extraction of KEGG annotations and associated pathways enriched in the […] signature (FIG. 3D) tended to refer to either general categories (e.g. “proteasome,” “cell cycle,” “phagosome”) or categories relevant to other specific cell types (e.g. “Epithelial cell signaling in H. pylori infection,” “Collecting duct acid secretion,” “Axon guidance”). […] We next computed normalized gene expression values for the DEGs extracted from the TGF-β-antagonizing signature and overlaid Ch55-induced relative expression effects on potentially fibrosis-relevant pathways of interest using Pathview Web (Luo et al., 2017).
Purified RNA harvested from primary cultured human foreskin fibroblasts pooled from three donors underwent TruSeq stranded mRNA-seq library preparation at the Northwestern University NUSeq core facility, followed by paired-end sequencing on an Illumina HiSeq 4000. Raw FASTQ files were imported into Galaxy (Jalili et al., 2020). Reads were trimmed using Trimmomatic (Bolger et al., 2014) utilizing default parameters, prior to aligning to the human genome (hg38 construction) using HISAT2 (Kim et al., 2019). Reads were assigned to genomic features using featureCounts (Liao et al., 2014), and differential expression among groups was determined, and principal component analysis constructed, using DESeq2 (Love et al., 2014) with multiple comparison adjustment performed by the Benjamini-Hochberg correction (Benjamini and Hochberg, 1995). Differentially-expressed genes were defined as false discovery rate-adjusted (FDR) P<0.05. Pathway analysis on KEGG databases (Kanehisa and Goto, 2000) were performed using goseq (Young et al., 2010) and Pathview Web (Luo et al., 2017). Z-scores were calculated from normalized count values and used to construct heatmaps. FPKM values were estimated using Stringtie (Pertea et al., 2015). Raw RNA-sequence data are available through the National Center for Biotechnology Information Sequence Read Archive accession number PRJNA921850, the contents of which is incorporated by reference in its entirety.

CC(C)(C)c1cc(C(=O)/C=C/c2ccc(C(=O)O)cc2)cc(C(C)(C)C)c1 [Ch55]
collagen density of the scars (Masson's Trichrome, picrosirius red/fast green) ([1]; Ch55-treated wounds): possible decrease | amount of type I collagen in the dermis (Western blot, densitometry) ([1]; high dose (10 μg)): sufficient to reduce | erythema in developed scars ([1]; high dose (10 μg)): significantly decreased | amount of type I collagen in the dermis (Western blot, densitometry) ([1]; low dose (2 μg)): sufficient to reduce | erythema in developed scars ([1]; low dose (2 μg)): not statistically significant | genes known to be targets or regulators of retinoic acid signaling (RNA-seq) [2]: broad upregulation | myofibroblast marker genes (RNA-seq) [2]: significantly downregulated | LRRC15+/Lrrc15+ signature-enriched genes significantly downregulated (number of genes) ([2]; RNA-seq): 67/117 | LRRC15+/Lrrc15+ signature-enriched genes significantly downregulated (share of genes) ([2]; RNA-seq): ~57%
